Tests used:
U266 = system: U266; set-up: method as in earlier work; conditions: cited from earlier work
AEBS [1] = biological target: T1, AEBS (Homo sapiens, UniProt Q15125+Q9UBM7); experiment: Binding to the AEBS in LP1; set-up: endogenous in cells; host or cells: LP-1 human multiple myeloma cell lines
RPMI 8226 = system: RPMI 8226; set-up: method as in earlier work; conditions: cited from earlier work
LP-1 cells [2] = experiment: Electron microscopy for MLBs, AVs and UVs; assay type: cell-based, human; conditions: 48 h, 10 μM drug (PBPE 40 μM)
AEBS [3] = biological target: T1, AEBS; experiment: Binding to the AEBS in HMCLs; set-up: endogenous in cells; host or cells: RPMI 8226 and LP-1 human multiple myeloma cell lines
ChEH [4] = biological target: T2, ChEH (Homo sapiens, UniProt Q15125+Q9UBM7); experiment: ChEH activity measured on intact cells; assay type: cell-based; set-up: endogenous in cells; host or cells: RPMI 8226 human multiple myeloma cell lines
From the text: (§1) Cells were then pelleted and extracted with chloroform/methanol (2/1). The organic layer was reduced to dryness under a flux of argon and the residue was resuspended in EtOH. Samples were applied to thin layer chromatography (TLC) plates and developed using ethyl acetate as previously described. The radioactive metabolites were visualized by autoradiography using Kodak Biomax MS films.

Karpas 620 = system: Karpas 620; set-up: method as in earlier work; conditions: cited from earlier work
AEBS [5] = biological target: T1, AEBS; experiment: Binding to the AEBS in RPMI 8226
NCI-H929 = system: NCI-H929; set-up: method as in earlier work; conditions: cited from earlier work
ChEH [6] = biological target: T2, ChEH; experiment: ChEH activity in HMCLs (TLC); assay type: cell-based; set-up: endogenous in cells; host or cells: RPMI 8226 and LP-1 human multiple myeloma cell lines; conditions: for ChEH activity, conversion of 5,6-EC into CT by TLC: OHT, Tam, RU 58668 10 μM, PBPE 40 μM
From the text: as §1

LP-1 = system: LP-1; set-up: method as in earlier work; conditions: cited from earlier work
RPMI 8226 cells [7] = experiment: Electron microscopy for MLBs, AVs and UVs; assay type: cell-based, human; conditions: 48 h, 10 μM drug (PBPE 40 μM)
MM tumors = system: MM tumors; set-up: method as in PMID 20033476, PMID 16753295; conditions: xenografted mice bearing MM tumors; cited from earlier work
OPM-2 = system: OPM-2; set-up: method as in earlier work; conditions: cited from earlier work
HMCLs = experiment: Free sterol accumulation in HMCLs; assay type: cell-based, human
Method: (§2) The organic layer was reduced to dryness under a flux of argon and the residue was resuspended in ethanol. Sterols were analyzed by liquid chromatography and gas-liquid chromatography as described before. Neutral lipids and sphingomyelin analyses were done according to previously published procedures.

ChEH [8] = biological target: T2, ChEH; experiment: ChEH activity measured on intact cells; assay type: cell-based; set-up: endogenous in cells; host or cells: LP-1 human multiple myeloma cell lines
From the text: as §1

RPMI 8226 and LP-1 cells [9] = experiment: Intracellular free sterol, TG and SM contents; assay type: cell-based, human; conditions: 5 µM OHT, 20 µM PBPE or 5 µM RU 58668 for three days
Method: as §2

RPMI 8226 and LP-1 cells [10] = experiment: Degradation of long-lived proteins; assay type: cell-based, human; conditions: both cell lines, 10 μM OHT, 40 μM PBPE
Method: The degradation of long-lived proteins was measured as described previously. Briefly, HMCLs were incubated for 24 h at 37°C with 0.2 μCi/ml of L-[[14]C]valine in complete medium. Cells were then washed resuspended in medium with no nutrients but supplemented with 10 mM valine. After the first h of incubation, the chase medium was replaced by complete medium and the incubation continued for 5 h. […] Radiolabeled proteins present in the chase medium as well as in cells were precipitated with 10% trichloroacetic acid (v/v) at 4°C. Radioactivity was measured by scintillation counting. The rate of protein degradation was calculated from the ratio of radioactivity in the medium to that of precipitated cell fraction.

RPMI 8226 cells [11] = experiment: Presence of 5,6-EC in cells by GC/MS; assay type: cell-based, human; conditions: 48 h, 10 μM drug (PBPE 40 μM)
Method: as §2

LP-1 cells [12] = experiment: Presence of 5,6-EC in cells by GC/MS; assay type: cell-based, human; conditions: 48 h, 10 μM drug (PBPE 40 μM)
Method: as §2

RPMI 8226 and LP-1 cells [13] = experiment: Cell viability, MTT assay; assay type: cell-based, human; conditions: 1 μM LY 294002, 10 nM everolimus, 10 μM RU 39411, 40 μM PBPE
Method: RPMI 8226 were obtained from R Bataille (CLCC, Nantes, France) and LP-1 cells from D Bouscary (Institut Cochin, Paris, France). At their arrival, the identity of cells was checked by karyotyping and surface markers expression; cells were then amplified and frozen. HMCLs were maintained in RPMI 1640 medium (Lonza, Basel, Switzerland) supplemented with 2 mM L-glutamine (Lonza) and 10% FCS (fetal calf serum) (PAA Laboratories, Velizy-Villacoublay, France). In experiments with AEs, cells were cultured in phenol red-free medium plus FCS. AEs were dissolved in ethanol (EtOH) to obtain 10 mM stock solution and then diluted into medium immediately before use. For controls, vehicle was added at the same final concentration. Cell viability was determined using CellTiter 96® AQueous One Solution (MTT [([3]-([4],[5])-dimethylthiazol-[2]-yl)-[2],[5]-diphenyltetrazolium bromide] assay, Promega, Charbonnières, France) according to the supplier's instructions.

RPMI 8226 cells [14] = experiment: Sterols accumulated in cells, HPLC and GC/MS; assay type: cell-based, human; conditions: RPMI 8226, 48 h incubation
Method: as §2

LP-1 cells [15] = experiment: Sterols accumulated in cells, HPLC and GC/MS; assay type: cell-based, human; conditions: LP1, 48 h incubation
Method: as §2

[16] = RPMI 8226, presence of 500 μM Vit E

T1 sequence (Q15125 whole entry): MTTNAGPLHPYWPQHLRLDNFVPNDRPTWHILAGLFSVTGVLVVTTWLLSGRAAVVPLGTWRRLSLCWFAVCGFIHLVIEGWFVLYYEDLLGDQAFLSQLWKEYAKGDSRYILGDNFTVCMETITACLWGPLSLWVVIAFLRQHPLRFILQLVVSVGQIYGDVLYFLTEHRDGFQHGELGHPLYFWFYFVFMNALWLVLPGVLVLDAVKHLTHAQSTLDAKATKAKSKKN
T1 sequence (Q9UBM7 whole entry): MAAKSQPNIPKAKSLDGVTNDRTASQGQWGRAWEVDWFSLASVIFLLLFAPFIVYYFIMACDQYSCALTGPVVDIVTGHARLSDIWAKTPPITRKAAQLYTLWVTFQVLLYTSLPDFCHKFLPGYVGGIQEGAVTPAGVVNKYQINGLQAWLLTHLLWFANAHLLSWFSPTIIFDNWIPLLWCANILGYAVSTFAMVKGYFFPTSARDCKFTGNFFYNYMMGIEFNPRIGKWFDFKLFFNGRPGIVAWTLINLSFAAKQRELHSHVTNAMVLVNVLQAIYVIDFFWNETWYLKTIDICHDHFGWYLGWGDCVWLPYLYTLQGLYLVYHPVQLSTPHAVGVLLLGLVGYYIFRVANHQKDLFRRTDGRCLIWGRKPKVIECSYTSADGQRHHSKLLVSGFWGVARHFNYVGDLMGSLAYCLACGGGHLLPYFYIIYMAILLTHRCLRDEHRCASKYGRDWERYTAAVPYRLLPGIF
T2 sequence (Q15125 whole entry): as the sequence (Q15125 whole entry) above
T2 sequence (Q9UBM7 whole entry): as the sequence (Q9UBM7 whole entry) above

SMILES	Ki (AEBS [1]) [nM]	AV (LP-1 cells [2]; LP-1, absence of Vit E)	MLB (LP-1 cells [2]; LP-1, absence of Vit E)	UV (LP-1 cells [2]; LP-1, absence of Vit E)	AV (LP-1 cells [2]; LP-1, presence of 500 μM Vit E)	MLB (LP-1 cells [2]; LP-1, presence of 500 μM Vit E)	UV (LP-1 cells [2]; LP-1, presence of 500 μM Vit E)	affinity for the AEBS (AEBS [3])	Ki (AEBS [5]) [nM]	ChEH activity, conversion of 5,6-EC into CT by TLC (ChEH [6])	AV (RPMI 8226 cells [7]; RPMI 8226, absence of Vit E)	MLB (RPMI 8226 cells [7]; RPMI 8226, absence of Vit E)	UV (RPMI 8226 cells [7]; RPMI 8226, absence of Vit E)	AV (RPMI 8226 cells [7]; [16])	MLB (RPMI 8226 cells [7]; [16])	UV (RPMI 8226 cells [7]; [16])	free sterol accumulated (HMCLs)	further results
C[C@]12C[C@H](c3ccc(OCCCCCS(=O)(=O)CCCC(F)(F)C(F)(F)F)cc3)[C@@H]3c4ccc(O)cc4CC[C@H]3[C@@H]1CC[C@@H]2O [RU 58668, 17β-11-[4-[5-[([4],[4],[5],[5],[5]-pentafluoropentyl)-sulfonyl]-pentyloxy]-phenyl]estra-1,3,5(10)-triene,3,17-diol]	> 10000	+ + (The sign + means that 80 % cells were positive and contained at least 5 vesicles)	− − (otherwise they were considered as negative (-))	− − (otherwise they were considered as negative (-))	+ + (The sign + means that 80 % cells were positive and contained at least 5 vesicles)	− − (otherwise they were considered as negative (-))	− − (otherwise they were considered as negative (-))	no measurable affinity	> 10000	CT accumulated	+ + (The sign + means that 80 % cells were positive and contained at least 5 vesicles)	− − (otherwise they were considered as negative (-))	− − (otherwise they were considered as negative (-))	+ + (The sign + means that 80 % cells were positive and contained at least 5 vesicles)	− − (otherwise they were considered as negative (-))	− − (otherwise they were considered as negative (-))	did not induce free sterol accumulation	SERM and SERDs effects on MM cell lines (U266): No response; SERM and SERDs effects on MM cell lines (RPMI 8226): Apoptosis; IC50 (ChEH [4]; RPMI 8226 intact cells, [14C]-5,6-EC 0.6 μM, drugs 1 nM to 10 μM over 24 h, read-out: ChEH IC50): > 10000 nM; SERM and SERDs effects on MM cell lines (Karpas 620): No response; SERM and SERDs effects on MM cell lines (NCI-H929): Apoptosis; IC50 (ChEH [6]; read-out: concentration up to which ChEH was not inhibited): > 10000 nM; SERM and SERDs effects on MM cell lines (LP-1): G1-arrest; tumor growth (MM tumors): block tumor growth; SERM and SERDs effects on MM cell lines (OPM-2): G1-arrest; IC50 (ChEH [8]; LP-1 intact cells, [14C]-5,6-EC 0.6 μM, drugs 1 nM to 10 μM over 24 h, read-out: ChEH IC50): > 10000 nM
Cl.c1ccc(Cc2ccc(OCCN3CCCC3)cc2)cc1 [PBPE, 1-(2-(4-benzylphenoxy)-ethyl)-pyrrolidin-HCl]	3.2 ± 2.2	+ + (The sign + means that 80 % cells were positive and contained at least 5 vesicles)	+ + (The sign + means that 80 % cells were positive and contained at least 5 vesicles)	+ (The sign + means that 80 % cells were positive and contained at least 5 vesicles)	+ + (The sign + means that 80 % cells were positive and contained at least 5 vesicles)	+ + (The sign + means that 80 % cells were positive and contained at least 5 vesicles)	− (otherwise they were considered as negative (-))	high affinity	4.2 ± 1.8	ChEH activity was inhibited	+ + (The sign + means that 80 % cells were positive and contained at least 5 vesicles)	+ + (The sign + means that 80 % cells were positive and contained at least 5 vesicles)	+ (The sign + means that 80 % cells were positive and contained at least 5 vesicles)	+ + (The sign + means that 80 % cells were positive and contained at least 5 vesicles)	+ + (The sign + means that 80 % cells were positive and contained at least 5 vesicles)	− (otherwise they were considered as negative (-))	accumulation zymostenol	intracellular free sterol, triacylglycerol (TG) and sphingomyelin (SM) contents (RPMI 8226 and LP-1 cells [9]): increases; rate of long-lived protein degradation (RPMI 8226 and LP-1 cells [10]): stimulated; IC50 (ChEH [4]): 927 ± 24 nM; 5,6-EC (RPMI 8226 cells [11]; RPMI 8226, absence of Vit E): +; 5,6-EC (RPMI 8226 cells [11]; [16]): −; 5,6-EC (LP-1 cells [12]; LP-1, absence of Vit E): +; 5,6-EC (LP-1 cells [12]; LP-1, presence of 500 μM Vit E): −; cell death (viable cells, MTT assay) (RPMI 8226 and LP-1 cells [13]): cell death that was strictly caspase-independent; Desmosterol (RPMI 8226 cells [14]): 1.4 percent by the weight of total sterol; Zymostenol (RPMI 8226 cells [14]): 28.7 percent by the weight of total sterol; Desmosterol (LP-1 cells [15]): 1.2 percent by the weight of total sterol; Zymostenol (LP-1 cells [15]): 31.1 percent by the weight of total sterol; IC50 (ChEH [8]): 884 ± 32 nM

Reference: PMC3757248, “Antiestrogen-binding site ligands induce autophagy in myeloma cells that proceeds through alteration of cholesterol metabolism” (Oncotarget, 2013)
